# Experimental data published in US6818653B1, “6,7-Disubstituted -5,8-quinolinedione derivatives as an antifungal agent” (Il Jin Copper Foil Corp., priority 2002, dated 2004).
# Where two headings read alike, the source gives them in different places.
# What was measured:
# [1] = tested on: Candida parasilosis ATCC22019; assay: MIC by solid medium dilution method; format: cell-based; conditions: Sabouraud's agar, 3 days at 30° C.; for MIC: 72 h, read-out: MIC C. parapsilosis
# Description: (§1) The minimum inhibitory concentration (MIC), which indicates the lowest concentration of the active ingredient in the growth medium, was determined by solid medium dilution method. Pathogens strains used are Candida albicans ATCC10231, Candida glabrata ATCC2001, Candida tropicalis ATCC8775, Candida parasilosis ATCC22019, Cryptococuss neoformans KCTC7223.
# (§2) 4 mg of a test compound was dissolved in 2 ml of dimethylfulfoxide(DMSO) to produce solutions having a concentration of 2 mg/ml for use and serial two-fold dilution was prepared. The test medium was Sabouraud's agar. 50 μl aliquot of serial two-fold dilution was added to 1 ml of agar medium in 10×1.2 cm petri dishes to be 100, 50, 25, 12.5 6.3, 1.6, and 0.8 μg/ml of test compound concentration and the slant was prepared by tilting the petri dishes. The MIC value without containing a test compound was determined in order to test an effect of a solvent to an antifungal activity. Hyphae with a diameter of 2 mm were inoculated with 2×10^5 CFU. After the medium was cultured for 3 days at 30° C., the MIC values were determined. Control drugs were fluconazole and ketoconazole.
# [2] = tested on: Candida glabrata ATCC2001; assay: MIC by solid medium dilution method; format: cell-based; conditions: Sabouraud's agar, 3 days at 30° C.; for MIC: Nakaseomyces glabratus, ATCC2001, 72 h
# Description: as §1, §2
# [3] = tested on: Cryptococuss neoformans KCTC7223; assay: MIC by solid medium dilution method; format: cell-based; conditions: Sabouraud's agar, 3 days at 30° C.; for MIC: Cryptococcus neoformans, KCTC7223, 72 h
# Description: as §1, §2
# [4] = tested on: Candida tropicalis ATCC8775; assay: MIC by solid medium dilution method; format: cell-based; conditions: Sabouraud's agar, 3 days at 30° C.; for MIC: Candida tropicalis, ATCC8775, 72 h, read-out: MIC C. tropicallis
# Description: as §1, §2
# [5] = tested on: Candida albicans ATCC10231; assay: MIC by solid medium dilution method; format: cell-based; conditions: Sabouraud's agar, 3 days at 30° C.; for MIC: Candida albicans, ATCC10231, 72 h
# Description: as §1, §2
# C. albicans = assay: ED50 in rats infected with C. albicans via tail vein; format: in vivo, rat; conditions: for ED50: Candida albicans, read-out: ED50 ± SD (n = 5)
# Description: C. albicans (1×10^7) isolated was inoculated to Sabouraud's agar, suspended in a physiological saline solution, and injected into tail vein of a rat. Strains to kill a rat within 48 hours were selected. C. albicans (2×10^6 which is concentration to kill a rat within 48 hours) suspended in a physiological saline solution was injected and infected into tail veins of 125 rats. Each concentration (10, 2, 0.5, 0.1, 0.025 mg/kg) of the compounds of table 3 was administered to each 10 rats. After infecting with Candida strain, each compound was administered to each 10 rats. Fluconazol as a control drug was also administered with 10, 2, 0.5 and 0.1 mg/kg of concentrations. A physiological saline solution containing 0.2% tween 20 was administered as a control group.
# [6] = rat infected with C. albicans 2×10^6 via tail vein
Molecule,MIC [1],MIC [2],MIC [3],MIC [4],MIC [5],MIC C. parapsilosis [1],MIC C. glabrata [2],MIC C. neoformans [3],MIC C. tropicallis [4],MIC C. albicans [5],ED50 ± SD (n = 5) (C. albicans; [6]),ED50 (C. albicans),ED50 (C. albicans; [6])
"CCCCSC1=C(Cl)C(=O)c2ncccc2C1=O [compound 15, 6-n-butylmercapto-7-chloro-5,8-quinolindion]",25 µg/mL,12.5 µg/mL,12.5 µg/mL,100 µg/mL,25 µg/mL,,,,,,,,
"O=C1C(Nc2cc(Cl)cc(Cl)c2)=C(Cl)C(=O)c2ncccc21 [Compound No. 2, 6-[(N-3,5-dichlorophenyl)amino]-7-chloro-5,8-quinolindion]",,,,,,6.3 µg/mL,12.5 µg/mL,12.5 µg/mL,25.0 µg/mL,12.5 µg/mL,0.07 mg/kg,,
"N#CSC1=C(Nc2ccc(I)cc2)C(=O)c2cccnc2C1=O [compound 8, 6-[(N-4-iodophenyl)amino]-7-thiocyano-5,8-quinolindion]",100 µg/mL,12.5 µg/mL,12.5 µg/mL,12.5 µg/mL,12.5 µg/mL,,,,,,,,
"O=C1C(Nc2ccc(Cl)cc2)=C(Br)C(=O)c2ncccc21 [Compound No. 1, 6-[(N-4-chlorophenyl)amino]-7-bromo-5,8-quinolindion]",25 µg/mL,12.5 µg/mL,12.5 µg/mL,12.5 µg/mL,6.3 µg/mL,,,,,,,0.06 mg/kg,
"CCCCCCCCSC1=C(Cl)C(=O)c2ncccc2C1=O [compound 19, 6-n-octylmercapto-7-chloro-5,8-quinolindion]",3.2 µg/mL,25 µg/mL,12.5 µg/mL,12.5 µg/mL,12.5 µg/mL,,,,,,,,
"CCCCCSC1=C(Cl)C(=O)c2ncccc2C1=O [compound 16, 6-n-pentylmercapto-7-chloro-5,8-quinolindion]",6.3 µg/mL,12.5 µg/mL,25 µg/mL,50 µg/mL,3.2 µg/mL,,,,,,,,
"CCCSC1=C(Cl)C(=O)c2ncccc2C1=O [compound 14, 6-n-propylmercapto-7-chloro-5,8-quinolindion]",12.5 µg/mL,50 µg/mL,3.2 µg/mL,50 µg/mL,12.5 µg/mL,,,,,,,,
"N#CSC1=C(Nc2ccc(Br)cc2)C(=O)c2cccnc2C1=O [compound 9, 6-[(N-4-bromophenyl)amino]-7-thiocyano-5,8-quinolindion]",< 0.8 µg/mL,6.3 µg/mL,3.2 µg/mL,< 0.8 µg/mL,< 0.8 µg/mL,,,,,,,,
"CSC1=C(Nc2ccc(F)c(F)c2F)C(=O)c2cccnc2C1=O [compound 5, 6-[(N-2,3,4-trifulorophenyl)amino]-7-methylmercapto-5,8-quinolindion]",,,,,,25.0 µg/mL,3.2 µg/mL,6.3 µg/mL,3.2 µg/mL,1.6 µg/mL,,,
"OC(Cn1cncn1)(Cn1cncn1)c1ccc(F)cc1F [Fluconazole, fluconazole, reference compound]",12.5 µg/mL,25 µg/mL,25 µg/mL,100 µg/mL,25 µg/mL,,,,,,,,6 mg/kg
"CC(=O)c1ccc(NC2=C(Cl)C(=O)c3ncccc3C2=O)cc1 [Compound No. 4, 6-[(N-4-acetophenyl)amino]-7-chloro-5,8-quinolindion]",,,,,,6.3 µg/mL,3.2 µg/mL,12.5 µg/mL,3.2 µg/mL,1.6 µg/mL,,,
"CSC1=C(Nc2ccc(Cl)cc2)C(=O)c2cccnc2C1=O [compound 6, 6-[(N-4-chlorophenyl)amino]-7-methylmercapto-5,8-quinolindion]",25 µg/mL,6.3 µg/mL,12.5 µg/mL,< 0.8 µg/mL,12.5 µg/mL,,,,,,,,
"N#CSC1=C(Nc2cc(F)cc(F)c2)C(=O)c2cccnc2C1=O [compound 12, 6-[(N-3,5-difulorophenyl)amino]-7-thiocyano-5,8-quinolindion]",,,,,,1.6 µg/mL,12.5 µg/mL,<0.8 µg/mL,3.2 µg/mL,12.5 µg/mL,,,
"CCCCCCCSC1=C(Cl)C(=O)c2ncccc2C1=O [compound 18, 6-n-heptylmercapto-7-chloro-5,8-quinolindion]",6.3 µg/mL,50 µg/mL,12.5 µg/mL,12.5 µg/mL,6.3 µg/mL,,,,,,,,
"CC(=O)c1ccc(NC2=C(SC#N)C(=O)c3ncccc3C2=O)cc1 [compound 11, 6-[(N-4-acetophenyl)amino]-7-thiocyano-5,8-quinolindion]",,,,,,3.2 µg/mL,25 µg/mL,<0.8 µg/mL,3.2 µg/mL,6.3 µg/mL,,,
"CSC1=C(Nc2ccc(I)cc2)C(=O)c2cccnc2C1=O [compound 7, 6-[(N-4-iodophenyl)amino]-7-methylmercapto-5,8-quinolindion]",25 µg/mL,3.2 µg/mL,3.2 µg/mL,3.2 µg/mL,6.3 µg/mL,,,,,,,,
"O=C1C(Nc2ccc(Br)cc2)=C(Br)C(=O)c2ncccc21 [Compound No. 3, 6-[(N-4-bromophenyl)amino]-7-bromo-5,8-quinolindion]",25 µg/mL,6.3 µg/mL,6.3 µg/mL,12.5 µg/mL,6.3 µg/mL,,,,,,,0.06 mg/kg,
"6-n-hecxylmercapto-7-chloro-5,8-quinolindion [compound 17]",,,,,,25 µg/mL,50 µg/mL,12.5 µg/mL,50 µg/mL,25 µg/mL,,,
"CCCCCCCCCSC1=C(Cl)C(=O)c2ncccc2C1=O [compound 20, 6-n-nonylmercapto-7-chloro-5,8-quinolindion]",25 µg/mL,50 µg/mL,25 µg/mL,6.3 µg/mL,50 µg/mL,,,,,,,,
"CC(=O)N1CCN(c2ccc(OCC3COC(Cn4ccnc4)(c4ccc(Cl)cc4Cl)O3)cc2)CC1 (stereo not drawn) [Ketoconazole, ketoconazole, reference compound]",12.5 µg/mL,12.5 µg/mL,12.5 µg/mL,12.5 µg/mL,12.5 µg/mL,,,,,,,,
"CCSC1=C(Cl)C(=O)c2ncccc2C1=O [compound 13, 6-n-ethylmercapto-7-chloro-5,8-quinolindion]",,,,,,3.2 µg/mL,50 µg/mL,6.3 µg/mL,100 µg/mL,12.5 µg/mL,,,
"N#CSC1=C(Nc2ccc(Cl)cc2)C(=O)c2cccnc2C1=O [compound 10, 6-[(N-4-chlorophenyl)amino]-7-thiocyano-5,8-quinolindion]",100 µg/mL,12.5 µg/mL,6.3 µg/mL,12.5 µg/mL,12.5 µg/mL,,,,,,,,
